The NIST ThermoML archive (doi:10.1016/j.fluid.2015.09.010)
± gives the expanded uncertainty stated by the source.

Assay: xn = mol fraction of the nth substance listed
Conditions: Gas, single sinker densimeter

F/C=C/C(F)(F)F [trans-1,3,3,3-tetrafluoropropene] + CCC
Conditions | mass density [kg/m3]
258.15 K, 100.61 kPa, x1 = 0.3426 | 3.2856 ± 0.014
258.15 K, 196.38 kPa, x1 = 0.168 | 5.3883 ± 0.012
258.15 K, 283.13 kPa, x1 = 0.168 | 7.9775 ± 0.013
258.16 K, 100.07 kPa, x1 = 0.168 | 2.6751 ± 0.012
258.16 K, 161.36 kPa, x1 = 0.3426 | 5.3604 ± 0.015
258.18 K, 242.52 kPa, x1 = 0.3426 | 8.2589 ± 0.016
263.19 K, 101.37 kPa, x1 = 0.3426 | 3.2412 ± 0.014
263.19 K, 283.01 kPa, x1 = 0.3426 | 9.5248 ± 0.016
263.2 K, 100.13 kPa, x1 = 0.168 | 2.6195 ± 0.011
263.2 K, 200.66 kPa, x1 = 0.3426 | 6.5891 ± 0.015
263.2 K, 209.39 kPa, x1 = 0.168 | 5.6353 ± 0.012
263.2 K, 326.36 kPa, x1 = 0.168 | 9.0877 ± 0.014
263.21 K, 228.28 kPa, x1 = 0.5076 | 8.8723 ± 0.017
263.22 K, 100.69 kPa, x1 = 0.5076 | 3.7656 ± 0.016
263.22 K, 168.02 kPa, x1 = 0.5076 | 6.4065 ± 0.017
268.16 K, 332.61 kPa, x1 = 0.3431 | 11.1032 ± 0.016
268.16 K, 332.62 kPa, x1 = 0.3431 | 11.1044 ± 0.016
268.17 K, 101.25 kPa, x1 = 0.168 | 2.5987 ± 0.011
268.17 K, 101.55 kPa, x1 = 0.679 | 4.2921 ± 0.018
268.17 K, 164.37 kPa, x1 = 0.679 | 7.0737 ± 0.019
268.17 K, 201.77 kPa, x1 = 0.3431 | 6.4883 ± 0.015
268.17 K, 227.73 kPa, x1 = 0.679 | 9.9973 ± 0.019
268.18 K, 202.12 kPa, x1 = 0.5076 | 7.6182 ± 0.017
268.18 K, 248.05 kPa, x1 = 0.168 | 6.5968 ± 0.012
268.18 K, 396.76 kPa, x1 = 0.168 | 11.0064 ± 0.014
268.19 K, 101.5 kPa, x1 = 0.3431 | 3.1825 ± 0.014
268.19 K, 104.3 kPa, x1 = 0.5076 | 3.83 ± 0.016
268.2 K, 297.38 kPa, x1 = 0.5076 | 11.5325 ± 0.018
273.16 K, 335.7 kPa, x1 = 0.168 | 8.9351 ± 0.014
273.16 K, 451.06 kPa, x1 = 0.168 | 12.3973 ± 0.015
273.17 K, 100.67 kPa, x1 = 0.3426 | 3.0918 ± 0.013
273.17 K, 101.01 kPa, x1 = 0.168 | 2.541 ± 0.011
273.17 K, 239.94 kPa, x1 = 0.3426 | 7.62 ± 0.014
273.18 K, 102.27 kPa, x1 = 0.5076 | 3.6758 ± 0.015
273.18 K, 200.45 kPa, x1 = 0.5076 | 7.3826 ± 0.017
273.18 K, 209.57 kPa, x1 = 0.168 | 5.4023 ± 0.012
273.18 K, 354.79 kPa, x1 = 0.5076 | 13.6621 ± 0.018
273.18 K, 373.24 kPa, x1 = 0.3426 | 12.2939 ± 0.016
273.18 K, 413.03 kPa, x1 = 0.3426 | 13.7671 ± 0.018
273.2 K, 100.65 kPa, x1 = 0.679 | 4.1755 ± 0.018
273.2 K, 206.18 kPa, x1 = 0.679 | 8.804 ± 0.019
273.21 K, 292.51 kPa, x1 = 0.679 | 12.8266 ± 0.02
278.16 K, 417.17 kPa, x1 = 0.3431 | 13.5784 ± 0.017
278.17 K, 309.55 kPa, x1 = 0.3431 | 9.7917 ± 0.015
278.18 K, 526.01 kPa, x1 = 0.168 | 14.3898 ± 0.016
278.19 K, 99.65 kPa, x1 = 0.5076 | 3.5099 ± 0.015
278.19 K, 100.62 kPa, x1 = 0.3431 | 3.0318 ± 0.013
278.19 K, 101.41 kPa, x1 = 0.168 | 2.5025 ± 0.011
278.19 K, 191.78 kPa, x1 = 0.5076 | 6.9037 ± 0.016
278.19 K, 198.9 kPa, x1 = 0.3431 | 6.1248 ± 0.014
278.19 K, 207 kPa, x1 = 0.168 | 5.2225 ± 0.011
278.19 K, 297.09 kPa, x1 = 0.5076 | 10.9954 ± 0.017
278.19 K, 309.62 kPa, x1 = 0.168 | 7.9983 ± 0.013
278.19 K, 399.16 kPa, x1 = 0.5076 | 15.2118 ± 0.019
278.19 K, 401.11 kPa, x1 = 0.168 | 10.6025 ± 0.015
278.2 K, 223.87 kPa, x1 = 0.679 | 9.3941 ± 0.019
278.21 K, 100.47 kPa, x1 = 0.679 | 4.0836 ± 0.018
278.21 K, 100.48 kPa, x1 = 0.8949 | 4.7788 ± 0.02
278.21 K, 170.26 kPa, x1 = 0.8949 | 8.2642 ± 0.022
278.21 K, 223.89 kPa, x1 = 0.679 | 9.3939 ± 0.019
278.21 K, 278.18 kPa, x1 = 0.8949 | 13.9927 ± 0.022
278.22 K, 349.38 kPa, x1 = 0.679 | 15.2188 ± 0.021
283.16 K, 205.37 kPa, x1 = 0.3426 | 6.1995 ± 0.014
283.16 K, 338.25 kPa, x1 = 0.3426 | 10.53 ± 0.015
283.17 K, 101.18 kPa, x1 = 0.3426 | 2.9879 ± 0.013
283.17 K, 449.59 kPa, x1 = 0.3426 | 14.3925 ± 0.017
283.18 K, 580.09 kPa, x1 = 0.3426 | 19.2575 ± 0.02
283.19 K, 100.44 kPa, x1 = 0.168 | 2.4312 ± 0.011
